Measurements as given in the supplement of paper PMC13380429.

Columns and labels:
A549-ACE2 = test: drug-induced phospholipidosis relative to tamoxifen; higher = more phospholipidosis
[1] = test system: A549-ACE2 infected with SARS-CoV-2; test: cell count relative to DMSO; higher = less toxic; details: 24 h
Vero E6 [2] = test: drug sensitivity score (DSS) for viability; higher = more toxic; extreme values may be limits of the assay; details: 72 h
U2OS [3] = test: as above; details: 72 h
Calu-3 [4] = test: as above; details: 72 h
HepG2 [5] = test: as above; details: 72 h
Caco-2 [6] = test: as above; details: 72 h
Vero E6 [7] = test: relative viability EC50 (midpoint between 100% and the lowest measured viability); higher = less toxic; details: 72 h
U2OS [8] = test: as above; details: 72 h
Calu-3 [9] = test: as above; details: 72 h
Caco-2 [10] = test: as above; details: 72 h
Vero E6 [11] = test: cell viability relative to DMSO; higher = less toxic; details: 72 h
U2OS [12] = test: as above; details: 72 h
Calu-3 [13] = test: as above; details: 72 h
HepG2 [14] = test: as above; details: 72 h
Caco-2 [15] = test: as above; details: 72 h
[16] = test system: A549-ACE2 infected with SARS-CoV-2; test: morphology score (similarity to uninfected cells); higher = more like uninfected cells; details: 24 h
[17] = test system: A549-ACE2 infected with SARS-CoV-2; test: SARS-CoV-2 infection rate relative to DMSO; higher = more infection; details: 24 h
HepG2 [18] = test: relative viability EC50 (midpoint between 100% and the lowest measured viability); higher = less toxic; details: 72 h

CC(=O)c1cc([N+](=O)[O-])c(Sc2ccc(F)cc2F)s1
drug-induced phospholipidosis (A549-ACE2; 0.3 µM, 24 h): 3.19% | drug-induced phospholipidosis (A549-ACE2; 0.3 µM, 48 h): 2.73% | drug-induced phospholipidosis (A549-ACE2; 0.3 µM, 72 h): 0.714% | drug-induced phospholipidosis (A549-ACE2; 0.833333 µM, 24 h): -2.16% | drug-induced phospholipidosis (A549-ACE2; 0.833333 µM, 48 h): -1.61% | drug-induced phospholipidosis (A549-ACE2; 0.833333 µM, 72 h): -1.68% | drug-induced phospholipidosis (A549-ACE2; 3.33333 µM, 24 h): 10.1% | drug-induced phospholipidosis (A549-ACE2; 3.33333 µM, 48 h): 2.36% | drug-induced phospholipidosis (A549-ACE2; 3.33333 µM, 72 h): -2.13% | drug-induced phospholipidosis (A549-ACE2; 6.66667 µM, 24 h): 11.8% | drug-induced phospholipidosis (A549-ACE2; 6.66667 µM, 48 h): 16.5% | drug-induced phospholipidosis (A549-ACE2; 6.66667 µM, 72 h): 11.8% | drug-induced phospholipidosis (A549-ACE2; 30 µM, 24 h): 19.3% | drug-induced phospholipidosis (A549-ACE2; 30 µM, 72 h): 23.5% | cell count ([1]; 0.3 µM): 99% | cell count ([1]; 3 µM): 100% | cell count ([1]; 10 µM): 81% | cell count ([1]; 30 µM): 58% | drug sensitivity score (Vero E6 [2]): 0 | drug sensitivity score (U2OS [3]): 0.5 | drug sensitivity score (Calu-3 [4]): 0 | drug sensitivity score (HepG2 [5]): 2.1 | drug sensitivity score (Caco-2 [6]): 5.8 | relative viability EC50 (Vero E6 [7]): > 10 µM | relative viability EC50 (U2OS [8]): > 10 µM | relative viability EC50 (Calu-3 [9]): > 10 µM | relative viability EC50 (Caco-2 [10]): 1.81 µM | cell viability (Vero E6 [11]; 1 nM): 108% | cell viability (Vero E6 [11]; 10 nM): 98.8% | cell viability (Vero E6 [11]; 100 nM): 101% | cell viability (Vero E6 [11]; 1000 nM): 98.1% | cell viability (Vero E6 [11]; 10000 nM): 95.6% | cell viability (U2OS [12]; 1 nM): 95.3% | cell viability (U2OS [12]; 10 nM): 99.3% | cell viability (U2OS [12]; 100 nM): 95.2% | cell viability (U2OS [12]; 1000 nM): 101% | cell viability (U2OS [12]; 10000 nM): 80% | cell viability (Calu-3 [13]; 1 nM): 91% | cell viability (Calu-3 [13]; 10 nM): 95.3% | cell viability (Calu-3 [13]; 100 nM): 105% | cell viability (Calu-3 [13]; 1000 nM): 98.6% | cell viability (Calu-3 [13]; 10000 nM): 101% | cell viability (HepG2 [14]; 1 nM): 110% | cell viability (HepG2 [14]; 10 nM): 105% | cell viability (HepG2 [14]; 100 nM): 106% | cell viability (HepG2 [14]; 1000 nM): 100% | cell viability (HepG2 [14]; 10000 nM): 58.5% | cell viability (Caco-2 [15]; 1 nM): 98% | cell viability (Caco-2 [15]; 10 nM): 96.6% | cell viability (Caco-2 [15]; 100 nM): 103% | cell viability (Caco-2 [15]; 1000 nM): 87.4% | cell viability (Caco-2 [15]; 10000 nM): 31.8% | morphology score ([16]; 0.3 µM): 0.06 | morphology score ([16]; 3 µM): -0.18 | morphology score ([16]; 10 µM): 0.38 | morphology score ([16]; 30 µM): 0.17 | SARS-CoV-2 infection rate ([17]; 0.3 µM): 98% | SARS-CoV-2 infection rate ([17]; 3 µM): 106% | SARS-CoV-2 infection rate ([17]; 10 µM): 71% | SARS-CoV-2 infection rate ([17]; 30 µM): 55%

Oc1cc(CNC(=S)/C=C/c2cc(O)c(O)c(Br)c2)cc(O)c1O [NT157]
drug-induced phospholipidosis (A549-ACE2; 0.3 µM, 24 h): 2.74% | drug-induced phospholipidosis (A549-ACE2; 0.3 µM, 48 h): 2.03% | drug-induced phospholipidosis (A549-ACE2; 0.3 µM, 72 h): 3.76% | drug-induced phospholipidosis (A549-ACE2; 0.833333 µM, 24 h): -0.68% | drug-induced phospholipidosis (A549-ACE2; 0.833333 µM, 48 h): -0.74% | drug-induced phospholipidosis (A549-ACE2; 0.833333 µM, 72 h): -0.841% | drug-induced phospholipidosis (A549-ACE2; 3.33333 µM, 24 h): -0.71% | drug-induced phospholipidosis (A549-ACE2; 3.33333 µM, 48 h): -5.67% | drug-induced phospholipidosis (A549-ACE2; 6.66667 µM, 24 h): 22% | drug-induced phospholipidosis (A549-ACE2; 10 µM, 24 h): 29.2% | cell count ([1]; 0.1 µM): 104% | cell count ([1]; 0.3 µM): 107% | cell count ([1]; 1 µM): 106% | cell count ([1]; 3 µM): 93% | drug sensitivity score (Vero E6 [2]): 5.2 | drug sensitivity score (U2OS [3]): 8.8 | drug sensitivity score (Calu-3 [4]): 3.9 | drug sensitivity score (HepG2 [5]): 7.4 | drug sensitivity score (Caco-2 [6]): 5.8 | relative viability EC50 (Vero E6 [7]): 2.08 µM | relative viability EC50 (U2OS [8]): 1.07 µM | relative viability EC50 (Calu-3 [9]): 3.38 µM | relative viability EC50 (HepG2 [18]): 1.35 µM | relative viability EC50 (Caco-2 [10]): 2.1 µM | cell viability (Vero E6 [11]; 1 nM): 89.7% | cell viability (Vero E6 [11]; 10 nM): 102% | cell viability (Vero E6 [11]; 100 nM): 92.8% | cell viability (Vero E6 [11]; 1000 nM): 91% | cell viability (Vero E6 [11]; 10000 nM): 32.9% | cell viability (U2OS [12]; 1 nM): 102% | cell viability (U2OS [12]; 10 nM): 98.2% | cell viability (U2OS [12]; 100 nM): 99.8% | cell viability (U2OS [12]; 1000 nM): 64.9% | cell viability (U2OS [12]; 10000 nM): 23.5% | cell viability (Calu-3 [13]; 1 nM): 104% | cell viability (Calu-3 [13]; 10 nM): 101% | cell viability (Calu-3 [13]; 100 nM): 109% | cell viability (Calu-3 [13]; 1000 nM): 103% | cell viability (Calu-3 [13]; 10000 nM): 25.6% | cell viability (HepG2 [14]; 1 nM): 101% | cell viability (HepG2 [14]; 10 nM): 101% | cell viability (HepG2 [14]; 100 nM): 95.6% | cell viability (HepG2 [14]; 1000 nM): 74.1% | cell viability (HepG2 [14]; 10000 nM): 25.4% | cell viability (Caco-2 [15]; 1 nM): 78.4% | cell viability (Caco-2 [15]; 10 nM): 102% | cell viability (Caco-2 [15]; 100 nM): 99.4% | cell viability (Caco-2 [15]; 1000 nM): 90.2% | cell viability (Caco-2 [15]; 10000 nM): 25.7% | morphology score ([16]; 0.1 µM): 0.06 | morphology score ([16]; 0.3 µM): 0.02 | morphology score ([16]; 1 µM): -0.23 | morphology score ([16]; 3 µM): -0.08 | SARS-CoV-2 infection rate ([17]; 0.1 µM): 104% | SARS-CoV-2 infection rate ([17]; 0.3 µM): 103% | SARS-CoV-2 infection rate ([17]; 1 µM): 105% | SARS-CoV-2 infection rate ([17]; 3 µM): 101%

S=C(S)N1CCCC1 [pyrrolidine-dithiocarbamate]
drug-induced phospholipidosis (A549-ACE2; 0.3 µM, 24 h): 1.65% | drug-induced phospholipidosis (A549-ACE2; 0.3 µM, 48 h): 1.79% | drug-induced phospholipidosis (A549-ACE2; 0.3 µM, 72 h): 3.8% | drug-induced phospholipidosis (A549-ACE2; 0.833333 µM, 24 h): -0.57% | drug-induced phospholipidosis (A549-ACE2; 0.833333 µM, 48 h): 0.61% | drug-induced phospholipidosis (A549-ACE2; 0.833333 µM, 72 h): 0.446% | drug-induced phospholipidosis (A549-ACE2; 6.66667 µM, 24 h): 5.92% | drug-induced phospholipidosis (A549-ACE2; 10 µM, 24 h): 3.64% | drug-induced phospholipidosis (A549-ACE2; 30 µM, 24 h): -1.59% | cell count ([1]; 0.1 µM): 101% | cell count ([1]; 0.3 µM): 105% | cell count ([1]; 1 µM): 103% | cell count ([1]; 3 µM): 104% | drug sensitivity score (Vero E6 [2]): 1.6 | drug sensitivity score (U2OS [3]): 2.8 | drug sensitivity score (Calu-3 [4]): 3.2 | drug sensitivity score (HepG2 [5]): 4.4 | drug sensitivity score (Caco-2 [6]): 14.2 | relative viability EC50 (Calu-3 [9]): 3.14 µM | relative viability EC50 (HepG2 [18]): 3.53 µM | relative viability EC50 (Caco-2 [10]): 0.368 µM | cell viability (Vero E6 [11]; 1 nM): 102% | cell viability (Vero E6 [11]; 10 nM): 106% | cell viability (Vero E6 [11]; 100 nM): 101% | cell viability (Vero E6 [11]; 1000 nM): 103% | cell viability (Vero E6 [11]; 10000 nM): 63% | cell viability (U2OS [12]; 1 nM): 101% | cell viability (U2OS [12]; 10 nM): 99.3% | cell viability (U2OS [12]; 100 nM): 102% | cell viability (U2OS [12]; 1000 nM): 95.4% | cell viability (U2OS [12]; 10000 nM): 58.4% | cell viability (Calu-3 [13]; 1 nM): 93.7% | cell viability (Calu-3 [13]; 10 nM): 94.2% | cell viability (Calu-3 [13]; 100 nM): 102% | cell viability (Calu-3 [13]; 1000 nM): 99.8% | cell viability (Calu-3 [13]; 10000 nM): 41.7% | cell viability (HepG2 [14]; 1 nM): 95.5% | cell viability (HepG2 [14]; 10 nM): 93.4% | cell viability (HepG2 [14]; 100 nM): 96% | cell viability (HepG2 [14]; 1000 nM): 106% | cell viability (HepG2 [14]; 10000 nM): 13.1% | cell viability (Caco-2 [15]; 1 nM): 101% | cell viability (Caco-2 [15]; 10 nM): 101% | cell viability (Caco-2 [15]; 100 nM): 90.2% | cell viability (Caco-2 [15]; 1000 nM): 30.4% | cell viability (Caco-2 [15]; 10000 nM): 15.7% | morphology score ([16]; 0.1 µM): -0.05 | morphology score ([16]; 0.3 µM): 0.28 | morphology score ([16]; 1 µM): 0.32 | morphology score ([16]; 3 µM): 0.39 | SARS-CoV-2 infection rate ([17]; 0.1 µM): 108% | SARS-CoV-2 infection rate ([17]; 0.3 µM): 93% | SARS-CoV-2 infection rate ([17]; 1 µM): 85% | SARS-CoV-2 infection rate ([17]; 3 µM): 83%
